Publication PMC2806602 (The Journal of neuroscience : the official journal of the …, 2009)
Positions count from the first letter of the chain named.

Tests used:
Assay type in all cases: cell-based
GluRδ2^Lc D782A = target: T1, GluRδ2^Lc D782A (Rattus norvegicus, UniProt Q63226, A654T/D782A); experiment: Two-electrode voltage-clamp recordings in Xenopus oocytes, GluRδ2^Lc D782A
T1 sequence (Q63226 24-1007 A654T/D782A): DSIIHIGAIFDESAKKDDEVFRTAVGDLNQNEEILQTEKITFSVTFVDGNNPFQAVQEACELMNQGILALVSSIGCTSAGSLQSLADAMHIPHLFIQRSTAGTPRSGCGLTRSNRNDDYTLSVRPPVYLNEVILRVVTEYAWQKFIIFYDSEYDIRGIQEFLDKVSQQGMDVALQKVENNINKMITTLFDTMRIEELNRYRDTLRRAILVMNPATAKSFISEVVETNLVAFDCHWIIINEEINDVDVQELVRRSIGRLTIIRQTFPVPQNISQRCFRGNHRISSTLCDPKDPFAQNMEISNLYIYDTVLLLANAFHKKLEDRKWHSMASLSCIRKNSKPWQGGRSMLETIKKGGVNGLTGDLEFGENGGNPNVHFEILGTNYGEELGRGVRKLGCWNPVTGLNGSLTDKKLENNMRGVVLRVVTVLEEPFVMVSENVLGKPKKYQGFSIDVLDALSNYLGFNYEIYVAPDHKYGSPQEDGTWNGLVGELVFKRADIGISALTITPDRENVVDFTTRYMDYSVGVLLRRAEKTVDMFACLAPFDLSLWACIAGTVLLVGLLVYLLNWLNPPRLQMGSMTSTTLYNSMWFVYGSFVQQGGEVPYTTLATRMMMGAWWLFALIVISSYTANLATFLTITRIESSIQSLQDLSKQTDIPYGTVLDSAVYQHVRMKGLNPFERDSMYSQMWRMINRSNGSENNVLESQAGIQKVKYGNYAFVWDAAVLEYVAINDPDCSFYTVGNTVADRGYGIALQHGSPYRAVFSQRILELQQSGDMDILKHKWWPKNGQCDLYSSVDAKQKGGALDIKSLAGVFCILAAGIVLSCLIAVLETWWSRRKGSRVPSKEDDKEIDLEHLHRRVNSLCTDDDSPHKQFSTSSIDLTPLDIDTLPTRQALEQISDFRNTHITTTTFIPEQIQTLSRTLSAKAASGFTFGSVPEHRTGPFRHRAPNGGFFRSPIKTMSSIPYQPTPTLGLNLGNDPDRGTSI

GluRδ2^Lc E531A = target: T2, GluRδ2^Lc E531A (Rattus norvegicus, UniProt Q63226, A654T/E531A); experiment: Two-electrode voltage-clamp recordings in Xenopus oocytes, GluRδ2^Lc E531A
T2 sequence (Q63226 24-1007 E531A/A654T): T1 sequence (Q63226 24-1007 A654T/D782A) with E508A, A759D

GluRδ2^Lc E531A+D535A = target: T3, GluRδ2^Lc E531A+D535A (Rattus norvegicus, UniProt Q63226, A654T/D535A/E531A); experiment: Two-electrode voltage-clamp recordings in Xenopus oocytes, GluRδ2^Lc E531A+D535A
T3 sequence (Q63226 24-1007 E531A/D535A/A654T): T1 sequence (Q63226 24-1007 A654T/D782A) with E508A, D512A, A759D

[Ca+2] [Ca^2+, calcium]
Ca^2+ potentiation (relative to baseline) (GluRδ2^Lc D782A; 3 mM Ca^2+, ± SEM): 0.8 ± 0.02 fold | Ca^2+ potentiation (relative to baseline) (GluRδ2^Lc E531A; 3 mM Ca^2+, ± SEM): 1.6 ± 0.08 fold | Ca^2+ potentiation (relative to baseline) (GluRδ2^Lc E531A+D535A; 3 mM Ca^2+, ± SEM): 1.0 ± 0.04 fold

N[C@H](CO)C(=O)O [D-serine]
D-serine + 0 mM Ca^2+ nH (GluRδ2^Lc D782A; Hill slope, 0 mM Ca^2+): 1.0 | D-serine + 3 mM Ca^2+ nH (GluRδ2^Lc D782A; Hill slope, 3 mM Ca^2+): 1.1 | D-serine + 0 mM Ca^2+ nH (GluRδ2^Lc E531A; Hill slope, 0 mM Ca^2+): 1.1 | D-serine + 3 mM Ca^2+ nH (GluRδ2^Lc E531A; Hill slope, 3 mM Ca^2+): 1.9 | D-serine + 0 mM Ca^2+ nH (GluRδ2^Lc E531A+D535A; Hill slope, 0 mM Ca^2+): 2.2 | D-serine + 3 mM Ca^2+ nH (GluRδ2^Lc E531A+D535A; Hill slope, 3 mM Ca^2+): 2.2
